The results in this text go back to the NIST ThermoML archive (doi:10.1016/j.jct.2013.02.004).

The structures appear in SMILES notation. ± gives the expanded uncertainty stated by the source.

One data set is described as follows: activity coefficient (dimensionless); of the first substance listed, at infinite dilution; xn = mol fraction of the nth substance listed. The note with it: 338.15 K; 101 kPa; Liquid; Chromatography; x1 = 0.
As to `O` [water] + CCCCCC[n+]1ccc2ccccc2c1.N#C[S-], the activity coefficient came out at 0.406 ± 0.034.

The data set is the same for the next values; noted with them: 348.15 K; 101 kPa; Liquid; Chromatography; x1 = 0.
As for `C1CCCCCCC1` [cyclooctane] + CCCCCC[n+]1ccc2ccccc2c1.N#C[S-], the activity coefficient is 14.5 ± 1.
Still for that read-out and setting: then `C1CCCC1` [cyclopentane] + CCCCCC[n+]1ccc2ccccc2c1.N#C[S-], with 10.8 ± 0.7; and `CCCCCCCCCC` [decane] + CCCCCC[n+]1ccc2ccccc2c1.N#C[S-], with 78.4 ± 5.4.
On the same count and under the same terms, then `CCOCC` [diethyl ether] + CCCCCC[n+]1ccc2ccccc2c1.N#C[S-], with 6.15 ± 0.42; and `CC(C)OC(C)C` [diisopropyl ether] + CCCCCC[n+]1ccc2ccccc2c1.N#C[S-], with 16.5 ± 1.1.
Same read-out and setting: the figure for `CCCOCCC` [dipropyl ether] + CCCCCC[n+]1ccc2ccccc2c1.N#C[S-] is 12.6 ± 0.9; for `CCO` [ethanol] + CCCCCC[n+]1ccc2ccccc2c1.N#C[S-] it is 0.581 ± 0.041; for `CCc1ccccc1` [ethylbenzene] + CCCCCC[n+]1ccc2ccccc2c1.N#C[S-] it is 3.07 ± 0.21.
Regarding `CCCCCCC` [heptane] + CCCCCC[n+]1ccc2ccccc2c1.N#C[S-], the activity coefficient is 35.2 ± 2.4.
With `C=CCCCC` [hex-1-ene] + CCCCCC[n+]1ccc2ccccc2c1.N#C[S-], the activity coefficient amounted to 14.4 ± 1.
Take `CCCCCC` [hexane] + CCCCCC[n+]1ccc2ccccc2c1.N#C[S-]: the activity coefficient is 28.3 ± 1.9.
Turning to `CO` [methanol] + CCCCCC[n+]1ccc2ccccc2c1.N#C[S-], the activity coefficient turned out to be 0.375 ± 0.033.
For the compound `CC1CCCCC1` [methylcyclohexane] + CCCCCC[n+]1ccc2ccccc2c1.N#C[S-], the activity coefficient worked out at 16.4 ± 1.1.
On the same count and under the same terms, the figure for `CCCCCCCCC` [nonane] + CCCCCC[n+]1ccc2ccccc2c1.N#C[S-] is 59 ± 4; for `C=CCCCCCC` [oct-1-ene] + CCCCCC[n+]1ccc2ccccc2c1.N#C[S-] it is 24.4 ± 1.7; for `CCCCCCCC` [octane] + CCCCCC[n+]1ccc2ccccc2c1.N#C[S-] it is 45.7 ± 3.1.
On the same count and under the same terms, the figure for `CCCC(C)=O` [pentan-2-one] + CCCCCC[n+]1ccc2ccccc2c1.N#C[S-] is 2.12 ± 0.14.
Still for that read-out and setting: the figure for `CCC(=O)CC` [pentan-3-one] + CCCCCC[n+]1ccc2ccccc2c1.N#C[S-] is 2.13 ± 0.14; for `CCCO` [propan-1-ol] + CCCCCC[n+]1ccc2ccccc2c1.N#C[S-] it is 0.671 ± 0.045; for `c1ccncc1` [pyridine] + CCCCCC[n+]1ccc2ccccc2c1.N#C[S-] it is 0.722 ± 0.048.
`C1CCOC1` [tetrahydrofuran] + CCCCCC[n+]1ccc2ccccc2c1.N#C[S-]: the activity coefficient worked out at 1.48 ± 0.1.
Still for that read-out and setting: the figure for `c1ccsc1` [thiophene] + CCCCCC[n+]1ccc2ccccc2c1.N#C[S-] is 0.963 ± 0.061; for `Cc1ccccc1` [toluene] + CCCCCC[n+]1ccc2ccccc2c1.N#C[S-] it is 2.08 ± 0.14; for `O` [water] + CCCCCC[n+]1ccc2ccccc2c1.N#C[S-] it is 0.41 ± 0.03.

Staying with this data set, now noted: 358.15 K; 101 kPa; Liquid; Chromatography; x1 = 0.
As to `C1CCCCCCC1` [cyclooctane] + CCCCCC[n+]1ccc2ccccc2c1.N#C[S-], the activity coefficient is 13.7 ± 0.9.
Still for that read-out and setting: then `C1CCCC1` [cyclopentane] + CCCCCC[n+]1ccc2ccccc2c1.N#C[S-], with 10.2 ± 0.7; and `CCCCCCCCCC` [decane] + CCCCCC[n+]1ccc2ccccc2c1.N#C[S-], with 73.4 ± 5.
Still for that read-out and setting: then `CCOCC` [diethyl ether] + CCCCCC[n+]1ccc2ccccc2c1.N#C[S-], with 5.91 ± 0.4; and `CC(C)OC(C)C` [diisopropyl ether] + CCCCCC[n+]1ccc2ccccc2c1.N#C[S-], with 15.7 ± 1.1; and `CCCOCCC` [dipropyl ether] + CCCCCC[n+]1ccc2ccccc2c1.N#C[S-], with 11.9 ± 0.8.
`CCO` [ethanol] + CCCCCC[n+]1ccc2ccccc2c1.N#C[S-]: the activity coefficient came out at 0.574 ± 0.041.
Consider `CCc1ccccc1` [ethylbenzene] + CCCCCC[n+]1ccc2ccccc2c1.N#C[S-], for which the activity coefficient was 3.06 ± 0.21.
On the same count and under the same terms, then `CCCCCCC` [heptane] + CCCCCC[n+]1ccc2ccccc2c1.N#C[S-], with 32 ± 2.2; and `C=CCCCC` [hex-1-ene] + CCCCCC[n+]1ccc2ccccc2c1.N#C[S-], with 13.3 ± 0.9.
Consider `CCCCCC` [hexane] + CCCCCC[n+]1ccc2ccccc2c1.N#C[S-], for which the activity coefficient was found to be 25.4 ± 1.7.
On the same count and under the same terms, then `CO` [methanol] + CCCCCC[n+]1ccc2ccccc2c1.N#C[S-], with 0.376 ± 0.033.
Still for that read-out and setting: the figure for `CC1CCCCC1` [methylcyclohexane] + CCCCCC[n+]1ccc2ccccc2c1.N#C[S-] is 15.2 ± 1.
For the compound `CCCCCCCCC` [nonane] + CCCCCC[n+]1ccc2ccccc2c1.N#C[S-], the activity coefficient is 54.5 ± 3.7.
Still for that read-out and setting: the figure for `C=CCCCCCC` [oct-1-ene] + CCCCCC[n+]1ccc2ccccc2c1.N#C[S-] is 23.2 ± 1.6.
Same read-out and setting: the figure for `CCCCCCCC` [octane] + CCCCCC[n+]1ccc2ccccc2c1.N#C[S-] is 42.1 ± 2.9; for `CCCC(C)=O` [pentan-2-one] + CCCCCC[n+]1ccc2ccccc2c1.N#C[S-] it is 2.12 ± 0.14; for `CCC(=O)CC` [pentan-3-one] + CCCCCC[n+]1ccc2ccccc2c1.N#C[S-] it is 2.15 ± 0.15.
Turning to `CCCO` [propan-1-ol] + CCCCCC[n+]1ccc2ccccc2c1.N#C[S-], the activity coefficient was determined as 0.664 ± 0.045.
Still for that read-out and setting: the figure for `c1ccncc1` [pyridine] + CCCCCC[n+]1ccc2ccccc2c1.N#C[S-] is 0.729 ± 0.048; for `C1CCOC1` [tetrahydrofuran] + CCCCCC[n+]1ccc2ccccc2c1.N#C[S-] it is 1.48 ± 0.1; for `c1ccsc1` [thiophene] + CCCCCC[n+]1ccc2ccccc2c1.N#C[S-] it is 0.98 ± 0.06.
Still for that read-out and setting: the figure for `Cc1ccccc1` [toluene] + CCCCCC[n+]1ccc2ccccc2c1.N#C[S-] is 2.1 ± 0.14.
On to `O` [water] + CCCCCC[n+]1ccc2ccccc2c1.N#C[S-], for which the activity coefficient was 0.399 ± 0.034.

Still in this data set, the particulars now being: 368.15 K; 101 kPa; Liquid; Chromatography; x1 = 0.
Regarding `C1CCCCCCC1` [cyclooctane] + CCCCCC[n+]1ccc2ccccc2c1.N#C[S-], the activity coefficient turned out to be 12.9 ± 0.9.
Regarding `C1CCCC1` [cyclopentane] + CCCCCC[n+]1ccc2ccccc2c1.N#C[S-], the activity coefficient was found to be 9.6 ± 0.65.
Same read-out and setting: then `CCCCCCCCCC` [decane] + CCCCCC[n+]1ccc2ccccc2c1.N#C[S-], with 68.1 ± 4.7; and `CCOCC` [diethyl ether] + CCCCCC[n+]1ccc2ccccc2c1.N#C[S-], with 5.66 ± 0.39; and `CC(C)OC(C)C` [diisopropyl ether] + CCCCCC[n+]1ccc2ccccc2c1.N#C[S-], with 14.1 ± 1.
Same read-out and setting: then `CCCOCCC` [dipropyl ether] + CCCCCC[n+]1ccc2ccccc2c1.N#C[S-], with 11.3 ± 0.8.
On the same count and under the same terms, then `CCO` [ethanol] + CCCCCC[n+]1ccc2ccccc2c1.N#C[S-], with 0.566 ± 0.041; and `CCc1ccccc1` [ethylbenzene] + CCCCCC[n+]1ccc2ccccc2c1.N#C[S-], with 3.05 ± 0.21.
For `CCCCCCC` [heptane] + CCCCCC[n+]1ccc2ccccc2c1.N#C[S-], the activity coefficient was 29.1 ± 2.
Same read-out and setting: the figure for `C=CCCCC` [hex-1-ene] + CCCCCC[n+]1ccc2ccccc2c1.N#C[S-] is 12.3 ± 0.8; for `CCCCCC` [hexane] + CCCCCC[n+]1ccc2ccccc2c1.N#C[S-] it is 23.1 ± 1.6.
On the same count and under the same terms, then `CO` [methanol] + CCCCCC[n+]1ccc2ccccc2c1.N#C[S-], with 0.37 ± 0.033.
On the same count and under the same terms, then `CC1CCCCC1` [methylcyclohexane] + CCCCCC[n+]1ccc2ccccc2c1.N#C[S-], with 14 ± 1; and `CCCCCCCCC` [nonane] + CCCCCC[n+]1ccc2ccccc2c1.N#C[S-], with 51.3 ± 3.5; and `C=CCCCCCC` [oct-1-ene] + CCCCCC[n+]1ccc2ccccc2c1.N#C[S-], with 22.2 ± 1.5.
For `CCCCCCCC` [octane] + CCCCCC[n+]1ccc2ccccc2c1.N#C[S-], the activity coefficient amounted to 38.6 ± 2.6.
As for `CCCC(C)=O` [pentan-2-one] + CCCCCC[n+]1ccc2ccccc2c1.N#C[S-], the activity coefficient came to 2.13 ± 0.14.
Still for that read-out and setting: the figure for `CCC(=O)CC` [pentan-3-one] + CCCCCC[n+]1ccc2ccccc2c1.N#C[S-] is 2.15 ± 0.15.
For the compound `CCCO` [propan-1-ol] + CCCCCC[n+]1ccc2ccccc2c1.N#C[S-], the activity coefficient came out at 0.653 ± 0.045.
Turning to `c1ccncc1` [pyridine] + CCCCCC[n+]1ccc2ccccc2c1.N#C[S-], the activity coefficient is 0.745 ± 0.049.
Still for that read-out and setting: then `C1CCOC1` [tetrahydrofuran] + CCCCCC[n+]1ccc2ccccc2c1.N#C[S-], with 1.5 ± 0.1; and `c1ccsc1` [thiophene] + CCCCCC[n+]1ccc2ccccc2c1.N#C[S-], with 0.998 ± 0.062.
The same measure, in the same setting: the figure for `Cc1ccccc1` [toluene] + CCCCCC[n+]1ccc2ccccc2c1.N#C[S-] is 2.11 ± 0.14; for `O` [water] + CCCCCC[n+]1ccc2ccccc2c1.N#C[S-] it is 0.418 ± 0.035.
